The structures appear in SMILES notation. Peptide text beside a SMILES is read from it.

Experimental findings from US5561111A, “Stable glutamine derivatives for oral and intravenous rehydration and nutrition therapy” (The University of Virginia Patent Foundation, priority 1994, dated 1996) are described below.

This experiment deals with rabbit ileal mucosa. Briefly: Intestinal sodium cotransport in rabbit ileal mucosa mounted in Ussing chambers. The procedure:
To study intestinal sodium cotransport using the compounds of the present invention, Ala-Glu and Ala-Gln were tested according to the method of Lima et al, Brazilian J. Med Biol. Res., 25:637-640 (1992) for measuring intestinal sodium cotransport in rabbit ileal mucosa mounted in Ussing chambers. […] As shown the dose response increases dramatically in a non-linear fashion. […] The pD2 value is related to the ED50 in accordance with the following formula: -log ED50 =pD2.

For the compound `C[C@H](N)C(=O)N[C@@H](CCC(N)=O)C(=O)O` [Ala-Gln, alanyl-glutamine] (H-Ala-Gln-OH), the “maximum increase (Emax) in Isc” value worked out at 150 μA/cm^2.
